Measured values reported in patent US20140024663A1, “ATB(0,+) AMINO ACID TRANSPORTER AS A DRUG TARGET FOR TREATMENT OF ESTROGEN RECEPTOR-POSITIVE BREAST CANCER” (GEORGIA HEALTH SCIENCES UNIVERSITY RESEARCH INSTITUTE, INC., priority 2012, published 2014).

Tests used:
[1] = test system: MCF7 cells; assay: Cell death by propidium iodide staining and FACS cell cycle analysis; format: cell-based, human; conditions: 48 h
Protocol: Fluorescence-activated cell sorting (FACS) was used to monitor cell death. MCF7 cells were treated with or without α-MT, 3-MA, or α-MT plus 3-MA. Control and treated cells were then fixed in 50% ethanol, treated with 0.1% sodium citrate, 1 mg/ml RNase A, and 50 μg/ml propidium iodide, and then subjected to FACS analysis (FACS Caliber, Becton Dickinson).

[2] = test system: ZR75.1 cells; assay: QCM cell migration assay; format: cell-based, human; conditions: ZR75.1, α-MT 2.5 mM, 48 h, p>0.05
Protocol: Migration and invasion assays. The influence of α-MT on cell migration and invasion was determined with ZR75.1 cells. The migration of these cells toward fetal bovine serum was measured using the QCM™ cell migration assay kit (Millipore) according to manufacturer's instructions. Serum-starved ZR75.1 cells were allowed to migrate for 48 h in the presence/absence of α-MT (2.5 mM). After removing the cells on the top of the membrane filter, the inserts were stained with 0.1% crystal violet, washed and dried. The crystal violet dye retained on the filters, representing the cells that migrated to the underside of the membrane filter, was extracted with acetic acid. The absorbance of the extract was measured at 570 nm. Cell invasion assay was performed similarly using the QCM™ cell invasion assay kit (Millipore). The inserts used in this assay were coated with ECMATRIX™, representing extracellular matrix.

[3] = test system: MCF7 cells; assay: Xenograft in nude mice with estrogen pellets, tumor growth; format: in vivo, Balb/c nude mice; conditions: MCF7 (ER-positive) in the presence of estrogen administration, α-MT in drinking water 2 mg/ml
Protocol: FIGS. 10A to 10D. In vivo efficacy of α-MT in the treatment of ER-positive breast cancer. ZR75.1 (FIG. 10A), MCF7 (FIG. 10B), and MB-231 (FIG. 10C) cells were injected subcutaneously (sc) into Balb/c nude mice (10×10^6 cells per injection site). For MCF7 cells, slow-releasing estrogen pellets were implanted to support the tumor growth. For each cell line, the control group received water with sucrose and the treatment group received α-MT (2 mg/ml) in water with sucrose. Tumor size was measured periodically. NS, not statistically significant (p>0.05); *, p<0.005; two-tailed unpaired Student's t test. In FIG. 10D, Balb/c nude mice were divided into two groups; the control group received water with sucrose and the treatment group received α-MT (2 mg/ml) in water with sucrose for 2 weeks. Mice were then bled and α-MT in plasma was determined by HPLC. Xenograft in nude mice. Human breast cancer cells (ZR75.1, MCF7, and MB231) were injected s.c. close to the lower mammary gland on the right side of Balb/c nude mice (10×10^6 cells per injection site). Only for MCF7 cells, slow-releasing estrogen pellets were implanted to support the tumor growth. Implantation of estrogen pellets was done as follows. […] Tumor size in control and treatment groups was measured periodically by caliper and […] was calculated using the formula (width^2×length)/2.

CC(N)(Cc1c[nH]c2ccccc12)C(=O)O (racemic) [α-MT, α-methyl-DL-tryptophan]
cell death (propidium iodide, cell cycle analysis) ([1]; MCF7, α-MT 2.5 mM alone): significant cell death
cell death (propidium iodide, cell cycle analysis) ([1]; MCF7, α-MT 2.5 mM with cotreatment 3-MA 10 mM): further potentiated
migration in α-MT-treated cells [2]: 87±7 % of control
tumor growth in xenograft [3]: did not affect the growth
